# In patent US10526316B2, “Quinoxaline and pyridopyrazine derivatives as PI3Kβ inhibitors” (Janssen Pharmaceutica NV, priority 2015, dated 2020):
# Where a name gives a salt, the structure may show the parent alone. Read-outs that look alike come from different tables or passages of the source.
# Key:
# kinase enzymes [1] = target: T1, kinase enzymes (Homo sapiens, UniProt P42336); test: Enzyme binding assay (KINOMEscan, DiscoveRx), further kinases of Table A; settings: PIK3Cα_h
# T1 construct: purchased DiscoveRx Corporation, San Diego (contract service, KINOMEscan)
# Summary of the method: (§1)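 Binding affinities were measured on the KINOMEscan platform.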
# kinase enzymes [2] = target: T2, kinase enzymes (Homo sapiens, UniProt P48736); test: as above; settings: PIK3Cγ_h
# T2 construct: purchased DiscoveRx Corporation, San Diego (contract service, KINOMEscan)
# Summary of the method: as §1
# kinase enzymes [3] = target: T3, kinase enzymes (Homo sapiens, UniProt P42345); test: as above; settings: MTOR_h
# T3 construct: purchased DiscoveRx Corporation, San Diego (contract service, KINOMEscan)
# Summary of the method: as §1
# PI3Kδ = target: T4, PI3Kδ (Homo sapiens, UniProt O00329); test: Enzyme binding assay (KINOMEscan, DiscoveRx); settings: PIK3Cδ_h
# T4 construct: purchased DiscoveRx Corporation, San Diego (contract service, KINOMEscan)
# T4 sequence (O00329 1-1044): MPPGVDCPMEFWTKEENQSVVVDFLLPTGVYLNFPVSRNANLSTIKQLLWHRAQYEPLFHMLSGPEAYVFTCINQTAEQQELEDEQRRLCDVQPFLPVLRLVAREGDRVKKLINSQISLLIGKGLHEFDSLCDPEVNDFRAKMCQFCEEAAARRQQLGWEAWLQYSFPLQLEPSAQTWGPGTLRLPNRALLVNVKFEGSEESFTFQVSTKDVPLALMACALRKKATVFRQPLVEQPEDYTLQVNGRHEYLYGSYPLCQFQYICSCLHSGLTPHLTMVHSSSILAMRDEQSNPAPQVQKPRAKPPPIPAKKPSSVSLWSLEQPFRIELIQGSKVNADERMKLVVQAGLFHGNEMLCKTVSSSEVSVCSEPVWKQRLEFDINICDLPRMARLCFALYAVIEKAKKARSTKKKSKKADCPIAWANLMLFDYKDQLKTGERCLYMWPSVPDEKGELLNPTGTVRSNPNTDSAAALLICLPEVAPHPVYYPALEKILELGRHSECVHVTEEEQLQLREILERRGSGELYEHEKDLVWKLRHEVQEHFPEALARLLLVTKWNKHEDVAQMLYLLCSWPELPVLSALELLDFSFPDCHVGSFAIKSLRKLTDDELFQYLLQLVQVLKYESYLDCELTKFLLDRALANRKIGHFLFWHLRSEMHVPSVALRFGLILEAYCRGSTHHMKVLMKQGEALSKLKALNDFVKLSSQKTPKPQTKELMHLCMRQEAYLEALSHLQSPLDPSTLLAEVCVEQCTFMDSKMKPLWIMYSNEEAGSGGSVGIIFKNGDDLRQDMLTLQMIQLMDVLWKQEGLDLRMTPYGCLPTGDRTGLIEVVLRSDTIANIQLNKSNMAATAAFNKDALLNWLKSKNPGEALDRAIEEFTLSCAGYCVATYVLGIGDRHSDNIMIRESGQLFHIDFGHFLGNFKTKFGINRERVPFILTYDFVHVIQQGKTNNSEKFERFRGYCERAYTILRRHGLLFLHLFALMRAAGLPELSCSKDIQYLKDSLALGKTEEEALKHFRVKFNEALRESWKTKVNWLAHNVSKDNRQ
# Summary of the method: as §1
# PI3Kβ = target: T5, PI3Kβ (Homo sapiens, UniProt P42338); test: Enzyme binding assay (KINOMEscan, DiscoveRx); settings: PIK3Cβ_h, read-out: Kd PIK3Cβ_h
# T5 construct: purchased DiscoveRx Corporation, San Diego (contract service, KINOMEscan)
# Summary of the method: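 Kinase binding affinities were measured with KINOMEscan technology. Results are given as Kd, the inhibitor binding constant, in nM.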
# [4] = system: Akt phosphorylated at Thr308 in PC-3 cells; test: Cellular assay: phosphorylation of Akt at Thr308 in PC-3 cells (MSD ELISA); type: cell-based; settings: PC-3 cells, 60 min compound incubation, MSD ELISA, read-out: IC50 pAkt_Thr308
# Summary of the method: (§2)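 Electrochemiluminescent sandwich ELISA read-out: phospho-specific capture (Ser473 or Thr308), Sulfo-tag anti-total Akt detection, signal proportional to phospho-Akt. Cells treated 60 min at 37° C with compound, DMSO 0.3%. IC50 fitted from five concentrations.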
# [5] = system: Akt phosphorylated at Ser473 in PC-3 cells; test: Cellular assay: phosphorylation of Akt at Ser473 in PC-3 cells (MSD ELISA); type: cell-based; settings: PC-3 cells, 60 min compound incubation, MSD ELISA, read-out: IC50 pAkt_S473
# Summary of the method: as §2
# T2 sequence (P48736 whole entry): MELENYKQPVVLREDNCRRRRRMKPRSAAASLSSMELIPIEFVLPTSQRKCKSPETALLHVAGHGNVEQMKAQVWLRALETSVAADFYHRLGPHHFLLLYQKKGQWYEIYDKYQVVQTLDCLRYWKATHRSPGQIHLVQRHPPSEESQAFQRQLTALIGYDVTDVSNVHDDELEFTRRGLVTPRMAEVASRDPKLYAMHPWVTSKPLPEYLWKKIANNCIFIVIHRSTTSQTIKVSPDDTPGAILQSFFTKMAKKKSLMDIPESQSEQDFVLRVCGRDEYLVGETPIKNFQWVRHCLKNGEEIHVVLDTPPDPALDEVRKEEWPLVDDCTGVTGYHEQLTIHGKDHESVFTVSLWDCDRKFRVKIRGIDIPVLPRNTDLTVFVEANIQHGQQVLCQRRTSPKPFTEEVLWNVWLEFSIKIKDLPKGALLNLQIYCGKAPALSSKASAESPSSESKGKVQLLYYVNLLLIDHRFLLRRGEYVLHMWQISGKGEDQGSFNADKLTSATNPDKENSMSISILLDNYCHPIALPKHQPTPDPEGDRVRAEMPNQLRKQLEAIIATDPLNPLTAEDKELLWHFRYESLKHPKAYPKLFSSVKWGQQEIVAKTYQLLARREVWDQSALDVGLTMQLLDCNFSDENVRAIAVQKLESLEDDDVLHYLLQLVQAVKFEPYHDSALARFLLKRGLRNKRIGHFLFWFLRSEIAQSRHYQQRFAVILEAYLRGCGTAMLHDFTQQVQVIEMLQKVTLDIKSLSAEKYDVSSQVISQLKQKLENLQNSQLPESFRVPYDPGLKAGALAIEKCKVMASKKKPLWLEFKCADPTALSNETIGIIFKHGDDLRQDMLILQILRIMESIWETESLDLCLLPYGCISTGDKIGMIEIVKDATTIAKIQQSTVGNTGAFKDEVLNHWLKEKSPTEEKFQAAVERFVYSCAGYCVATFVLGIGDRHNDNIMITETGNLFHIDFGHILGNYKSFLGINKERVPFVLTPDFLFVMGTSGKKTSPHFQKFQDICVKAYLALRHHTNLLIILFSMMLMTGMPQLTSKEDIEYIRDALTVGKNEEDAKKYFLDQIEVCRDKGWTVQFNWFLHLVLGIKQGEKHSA
# T1 sequence (P42336 whole entry): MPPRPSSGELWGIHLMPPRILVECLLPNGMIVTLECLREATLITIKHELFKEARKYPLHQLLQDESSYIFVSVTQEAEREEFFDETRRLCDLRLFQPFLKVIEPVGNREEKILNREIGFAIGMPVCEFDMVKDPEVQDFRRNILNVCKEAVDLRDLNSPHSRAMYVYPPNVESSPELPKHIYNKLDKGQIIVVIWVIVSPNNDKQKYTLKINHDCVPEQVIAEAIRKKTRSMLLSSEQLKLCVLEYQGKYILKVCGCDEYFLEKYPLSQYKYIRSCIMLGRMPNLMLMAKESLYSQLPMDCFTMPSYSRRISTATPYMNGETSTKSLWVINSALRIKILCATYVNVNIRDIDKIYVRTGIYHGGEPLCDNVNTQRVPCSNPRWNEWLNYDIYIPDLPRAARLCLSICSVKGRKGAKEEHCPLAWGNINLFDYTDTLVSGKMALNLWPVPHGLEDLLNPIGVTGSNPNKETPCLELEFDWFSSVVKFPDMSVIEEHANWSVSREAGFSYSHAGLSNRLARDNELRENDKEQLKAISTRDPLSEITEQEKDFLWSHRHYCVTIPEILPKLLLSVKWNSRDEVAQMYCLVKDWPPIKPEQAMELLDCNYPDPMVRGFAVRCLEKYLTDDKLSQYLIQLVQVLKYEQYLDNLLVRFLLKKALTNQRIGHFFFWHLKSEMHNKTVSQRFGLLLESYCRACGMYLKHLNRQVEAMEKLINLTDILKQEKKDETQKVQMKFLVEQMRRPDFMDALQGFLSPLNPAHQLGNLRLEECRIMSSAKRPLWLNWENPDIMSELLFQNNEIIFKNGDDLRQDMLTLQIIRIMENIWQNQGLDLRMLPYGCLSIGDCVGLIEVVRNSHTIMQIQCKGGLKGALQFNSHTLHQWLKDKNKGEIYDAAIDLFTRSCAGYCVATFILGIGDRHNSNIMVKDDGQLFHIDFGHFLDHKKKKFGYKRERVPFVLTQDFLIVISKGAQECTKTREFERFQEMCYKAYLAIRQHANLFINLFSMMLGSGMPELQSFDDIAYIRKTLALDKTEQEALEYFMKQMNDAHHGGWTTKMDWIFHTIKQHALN
# T5 sequence (P42338 whole entry): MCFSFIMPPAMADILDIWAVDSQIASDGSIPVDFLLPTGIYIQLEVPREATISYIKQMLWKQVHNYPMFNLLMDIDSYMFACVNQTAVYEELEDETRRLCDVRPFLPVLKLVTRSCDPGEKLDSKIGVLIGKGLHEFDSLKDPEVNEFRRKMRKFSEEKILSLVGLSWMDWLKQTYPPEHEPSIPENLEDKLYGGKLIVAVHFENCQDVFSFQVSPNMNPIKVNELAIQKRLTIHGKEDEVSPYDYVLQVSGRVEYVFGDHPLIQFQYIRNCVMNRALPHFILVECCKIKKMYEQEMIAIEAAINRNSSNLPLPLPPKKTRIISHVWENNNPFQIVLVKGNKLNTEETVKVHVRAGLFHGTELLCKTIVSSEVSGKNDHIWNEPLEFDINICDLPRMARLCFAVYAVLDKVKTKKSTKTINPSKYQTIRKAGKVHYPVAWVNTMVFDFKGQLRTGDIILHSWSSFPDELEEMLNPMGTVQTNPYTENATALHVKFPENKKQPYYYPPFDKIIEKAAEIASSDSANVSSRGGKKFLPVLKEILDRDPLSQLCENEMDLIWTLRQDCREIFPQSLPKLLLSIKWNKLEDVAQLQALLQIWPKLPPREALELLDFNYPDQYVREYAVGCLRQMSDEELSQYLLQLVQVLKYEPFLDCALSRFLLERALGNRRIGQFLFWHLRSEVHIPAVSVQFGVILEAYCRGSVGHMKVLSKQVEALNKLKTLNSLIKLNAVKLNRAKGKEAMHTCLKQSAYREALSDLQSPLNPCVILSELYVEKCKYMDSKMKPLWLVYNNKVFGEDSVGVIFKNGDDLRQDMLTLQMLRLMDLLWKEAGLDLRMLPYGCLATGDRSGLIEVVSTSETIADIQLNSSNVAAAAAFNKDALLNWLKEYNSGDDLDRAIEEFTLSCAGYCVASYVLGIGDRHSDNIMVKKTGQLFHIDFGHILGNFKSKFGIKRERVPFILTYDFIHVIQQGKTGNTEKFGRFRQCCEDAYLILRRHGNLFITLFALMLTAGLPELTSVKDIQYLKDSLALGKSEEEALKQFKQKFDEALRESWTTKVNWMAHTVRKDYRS
Kd (kinase enzymes [1]) [µM],Kd (kinase enzymes [2]) [µM],Kd (kinase enzymes [3]) [µM],melting point [°C],Kd (PI3Kδ) [µM],Kd (PI3Kβ) [µM],IC50 [4] [µM],IC50 [5] [µM],"IC50 ([4]; Homo sapiens, PC-3, 1 h) [µM]","IC50 ([5]; Homo sapiens, PC-3, 1 h) [µM]",Compound
2.04,7.94,10.5,115,0.724,0.007,,,,,"Cc1ccc(NC(C)c2cc(C(=O)NCCN(C)C)cc3ncc(N4CCOCC4)nc23)cc1F (single isomer, unassigned) [Compound 407a]"
> 30.2,6.17,> 30.2,75,> 30.2,16.6,,,,,"CC(Nc1cc(F)cc(F)c1)c1cc(C(=O)NC[C@H](C)O)cc2ncc(N3CCOCC3)nc12 (single isomer, unassigned) [Compound 246b]"
18.6,> 30.2,> 30.2,128,7.41,0.166,,,,,"CC(Nc1cccc(F)c1)c1cc(C(=O)N2CC[C@@H](O)C2)cc2ncc(N3CCOCC3)nc12 (single isomer, unassigned) [Compound 321b]"
> 30.2,> 30.2,> 30.2,199.5,> 30.2,11.5,,,,,"COC(=O)c1cc(C(C)Nc2cccc(F)c2)c2nc(N3CCOCC3)cnc2c1 (single isomer, unassigned) [Compound 262b]"
10.7,14.1,> 30.2,144,11.5,1.32,,,,,CC(Nc1ccc(F)c(F)c1)c1cc(C(=O)NC2CCNC2)cc2ncc(N3CCOCC3)nc12 (stereo not shown) [Compound 325a]
1.44,4.27,26.3,127,0.331,0.003,,,,,"[2H]C([2H])(O)C([2H])([2H])NC(=O)c1cc(C(C)Nc2cccc(F)c2)c2nc(N3CCOCC3)cnc2c1 (single isomer, unassigned) [Compound 408a]"
4.37,3.8,> 30.2,105,2.95,0.339,,,,,"Cc1ccc(NC(C)c2cc(C(=O)NCCN(C)C)cc3ncc(N4CCOCC4)nc23)cc1F (single isomer, unassigned) [Compound 407b]"
5.01,4.68,20.9,,0.219,0.001,0.033,0.044,,,"CN[C@H]1CCN(C(=O)c2cc(C(C)Oc3cc(F)c(F)c(F)c3)c3nc(N4CCOCC4)cnc3c2)C1 (single isomer, unassigned) [Compound 405b]"
> 30.2,> 30.2,> 30.2,,> 30.2,1.51,,,> 0.513,> 0.513,"CC(Oc1cc(F)c(F)c(F)c1)c1cc(C(=O)N(C)C2CCNC2)cc2ncc(N3CCOCC3)nc12 (single isomer, unassigned) [Compound 404a]"
5.13,28.2,20,,1.86,0.026,> 0.513,> 0.513,,,"CC(C)NCCNC(=O)c1cc(C(C)Nc2ccc(Cl)c(F)c2)c2nc(N3CCOCC3)cnc2c1 (single isomer, unassigned) [Compound 312b]"

# The remaining lines, values behind:
Compound,Kd (kinase enzymes [1]) [µM],Kd (kinase enzymes [2]) [µM],Kd (kinase enzymes [3]) [µM],melting point [°C],Kd (PI3Kδ) [µM],Kd (PI3Kβ) [µM],IC50 [4] [µM],IC50 [5] [µM],"IC50 ([4]; Homo sapiens, PC-3, 1 h) [µM]","IC50 ([5]; Homo sapiens, PC-3, 1 h) [µM]"
C[C@@H](Nc1cc(F)cc(F)c1)c1cc(C(=O)NCCN(C)C)cc2ncc(N3CCOCC3)nc12 (as salt: HCl) [Compound 184a],,,,80,,,,,,
C[C@@H](Nc1cc(F)cc(F)c1)c1cc(C(=O)NCCN(C)C)cc2ncc(N3CCOCC3)nc12 (as salt: sulfuric acid salt) [Compound 184b],,,,270,,,,,,
"CC(Nc1cc(F)cc(F)c1)c1cc(CN2CCO[C@@H](CO)C2)cc2ncc(N3CCOCC3)nc12 (single isomer, unassigned) (as salt: HCl) [Compound 193]",,,,80,,,,,,
COC(=O)c1cc(C(C)Nc2cc(F)c(F)c(F)c2)c2nc(N3CCOCC3)cnc2c1 (stereo not shown) [Compound 266],,,,220,,,,,,
COC(=O)c1cc(C(C)Nc2ccc(C)c(F)c2)c2nc(N3CCOCC3)cnc2c1 (stereo not shown) [Compound 293],> 30.2,> 30.2,> 30.2,186,> 30.2,> 30.2,,,,
"CC(Nc1cc(F)cc(F)c1)c1cc(CN2CCO[C@H](CO)C2)cc2ncc(N3CCOCC3)nc12 (single isomer, unassigned) (as salt: HCl) [Compound 194]",,,,80,,,,,,
C[C@@H](Nc1cc(F)cc(F)c1)c1cc(C(=O)NCCN(C)C)cc2ncc(N3CCOCC3)nc12 (as salt: sulfonic acid salt) [Compound 184c],,,,74,,,,,,
"COC1CN(Cc2cc(C(C)Nc3cc(F)cc(F)c3)c3nc(N4CCOCC4)cnc3c2)CC1OC (single isomer, unassigned) (as salt: hydrochloride) [Compound 205]",,,,80,,,,,,
"CC(Nc1cc(F)cc(F)c1)c1cc(CNCC(F)(F)F)cc2ncc(N3CCOCC3)nc12 (single isomer, unassigned) (as salt: HCl) (hydrate or solvate) [Compound 163]",,,,239,,,,,,
"Cc1cccc(N(C)C(C)c2cc(C(=O)N(C)C)cc3ncc(N4CCOCC4)nc23)c1 (single isomer, unassigned) [Compound 128]",4.9,12.3,21.4,,15.1,1.12,> 0.513,> 0.513,,
"OC(CN1CCC1)c1cc(C2CCCN2c2cc(F)cc(F)c2)c2nc(N3CCOCC3)cnc2c1 (single isomer, unassigned) [Compound 95]",0.295,1.1,> 30.2,,0.178,0.0005,0.018,0.034,,
"C[C@@H]1CN(c2cnc3cc(C(=O)N(C)C)cc(C4CCCN4c4cccc(F)c4)c3n2)CCO1 (single isomer, unassigned) [Compound 29]",10.2,> 30.2,23.4,,21.9,1.66,> 0.513,> 0.513,,
CC(Nc1cc(F)cc(F)c1)c1cc(C(C)(C)O)cc2ncc(N3CCOCC3)nc12 (stereo not shown) [Compound 341],3.39,8.13,21.4,,1.48,0.017,,,0.026,0.046
CC1CN(C(=O)c2cc(C3CCCN3c3cc(F)cc(F)c3)c3nc(N4CCOCC4)cnc3c2)CC(C)N1 (stereo not shown) [Compound 39],,,,80,,,,,,
COC(=O)c1cc(C(C)Nc2cc(F)cc(Cl)c2)c2nc(N3CCOCC3)cnc2c1 (stereo not shown) [Compound 99],9.77,11.5,> 30.2,,4.68,0.052,,,0.355,> 0.513
CC(c1cc(C(=O)N(C)C)cc2ncc(N3CCOCC3)nc12)N(C)c1cccc(Cl)c1 (stereo not shown) [Compound 141],6.61,8.13,> 30.2,,0.776,0.006,,,0.102,0.182
CNCCN(C)C(=O)c1cc(N(C)Cc2cccc(F)c2C)c2nc(N3CCOCC3)cnc2c1 [Compound 362],2.95,9.77,19.1,,0.49,0.002,,,0.263,0.229
